In US20210338548A1, “Mint Flavor Compositions” (The Procter & Gamble Company, priority 2020, published 2021):

Tests used:
[1] = Comparison of cooling attributes of (−)-menthol and racemic menthol in toothpaste (CREST Cavity formulation); assay type: in vivo
Source text: The following data helps support the use of racemic menthol to reduce costs of mint flavor compositions herein described. From internal unpublished research, Table B compares replacing (−)-menthol with a racemic menthol in a 1:1 in a toothpaste formulation. Such a direct replacement is not preferred given the reduced cooling profile and olfactory differences; however, a portion of L-menthol is preferably replaced by racemic-menthol to gain cost efficiency while minimizing impact to the overall mint flavor profiles.
Table B is a comparison of attributes between (−)-menthol and racemic menthol in a toothpaste context (using CREST Cavity formulation).
This value represents the concentration of a coolant where 50% of its maximal cooling is observed.

[2] = Expert sensory testing of racemic menthol vs (−)-menthol in toothpaste (CREST Cavity) with standard spearmint flavor; assay type: in vivo
Description: In separate, unpublished internal experiments, perceptual experiences of racemic menthol are quantified via expert sensory testing. The use of a standard spearmint flavor (minimizing extra menthol contribution) compared racemic menthol to (−)-menthol in a toothpaste formulation (CREST Cavity). There are several sensory observations taken from these experiments. […] These aromatic notes appear during brushing and disappear after 5-10 minutes post expectoration and are more pronounced as concentrations increase.

In the case of `CC1CCC(C(C)C)C(O)C1` (racemic) [Racemic Menthol], the “Maximum Longevity” value [1] is reported as “Up to 20 minutes”, the “Potency compared to L-Menthol” value [1] is reported as ~0.65-0.7x and the “Time Point at Maximum Cooling” value [1] is reported as ~1 min. For the same compound, the “Maximum Cooling (0-60 scale)” value ([1]; 60 = greatest amount of cooling, 0 = least) was 35, the “EC 50” value ([1]; concentration of coolant giving 50% of its maximal cooling) was 1,250 to 1,500 parts per million and the “less potent than (−)-menthol for cooling” value [2] was 25-30%.
